Measured values taken from US11167012B2, “Peptide inhibition of CCR3-mediated diseases or conditions” (The Board of Trustees of the University of Illinois, priority 2015, dated 2021).
Entries after “also recorded” stand apart in the source; their conditions may differ. Primed or numbered codes have the meaning given here. Where no end group is shown, it is not given here. PEG27′ = polyethylene glycol chain of 27 units

Columns and labels:
CCR3 [1] = biological target: T1, CCR3 (Homo sapiens, UniProt P51677); experiment: Eotaxin-induced chemotaxis of 4DE4-CCR3 cells; assay type: cell-based; set-up: expressed in transfected cells; host or cells: 4DE4 mouse pre-B cell lymphoma line; settings: 80 nM eotaxin, 4 hours
T1 sequence (P51677 1-355): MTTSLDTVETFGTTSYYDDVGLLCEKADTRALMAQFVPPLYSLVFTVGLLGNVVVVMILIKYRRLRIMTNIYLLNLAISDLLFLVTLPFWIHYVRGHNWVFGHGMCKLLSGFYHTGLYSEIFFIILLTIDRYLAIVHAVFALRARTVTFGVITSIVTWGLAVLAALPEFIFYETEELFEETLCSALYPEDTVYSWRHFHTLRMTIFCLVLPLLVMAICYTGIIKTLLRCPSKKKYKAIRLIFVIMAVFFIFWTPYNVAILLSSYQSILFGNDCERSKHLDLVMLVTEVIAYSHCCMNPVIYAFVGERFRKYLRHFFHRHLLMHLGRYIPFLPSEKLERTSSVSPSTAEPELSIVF
Procedure: Cells were pretreated with, and then allowed to migrate towards, 80 nM eotaxin in the presence of the various CCR3 transmembrane peptides for 4 hours. Data are from three independent experiments. Error bars represent SEM.
To determine the effects of these peptides on CCR3-mediated chemotaxis, 4DE4-CCR3 cells were allowed to migrate to eotaxin/CCL11 in the presence of each peptide. 4DE4-CCR3, a mouse pre-B cell lymphoma line engineered to stably express human CCR3, has been used extensively to study CCR3 expression and CCR3-mediated chemotaxis.

CCR3 [2] = biological target: T1, CCR3; experiment: CCR3 surface expression and internalization by flow cytometry, AML14.3D10-CCR3 cells; assay type: cell-based; set-up: host or cells: AML14.3D10-CCR3 (eosinophilic myelocytic cell line, kept under G418); settings: for CCR3 internalization or surface accumulation on prolonged treatment: 1 μM for 24, 48 or 72 hour, with or without CCL11 (12 nM); for CCL11-induced receptor internalization: 1 μM, added concurrently with 12 nM CCL11
Procedure: Error bars represent SEM. *p<0.05, compared to untreated cells; n=3.
To assess surface expression of CCR3, cells were stained using PE-conjugated anti-human CCR3 antibody (clone 5E8, BioLegend) or PE-conjugated isotype-matched control after blocking with 10% human AB serum. To determine ligand-induced CCR3 internalization, cells were incubated with various chemokines for 1 hour at 37° C., washed once in staining buffer (PBS+0.5% BSA+0.1% NaN3) before being stained as above. After antibody staining, cells were fixed in 2% paraformaldehyde and analyzed on a QUANTA SC flow cytometer (Beckman Coulter, Indianapolis, Ind.).

ERK1/2 phosphorylation = experiment: Signal transduction assay, Western blotting of phospho-ERK1/2 in AML14.3D10-CCR3 cells; assay type: cell-based, human; settings: 10 μM, CCL11-induced
Procedure: Phospho-ERK was detected using a specific antibody. The membrane was stripped and reprobed for total ERK1/2 as loading control. Immunoblots were quantified by densitometry using ImageJ. PD: PD184161, MEK inhibitor.
AML14.3D10-CCR3 cells were serum starved for 16 hours. Cells were pretreated with vehicle control, R3-2-1 or PD184161 for 30 minutes at 37° C., and subsequently stimulated with 8 nM CCL5 or CCL11 for 2 minutes. Stimulation was stopped by adding ice cold PBS. Cells were centrifuged and lysed in RIPA buffer containing protease and phosphatase inhibitors. Cell lysates were resolved on a 12% SDS-PAGE gel (10 μg/lane), transferred to PVDF membrane and blocked in 5% milk. Phospho-ERK1/2 was detected using rabbit monoclonal antibody (clone D13.14.4E, Cell Signaling Technology, Danvers, Mass.) and secondary goat anti-rabbit IgG-HRP (Santa Cruz Biotechnology, Dallas, Tex.). As a loading control, the membrane was subsequently stripped and re-probed with an antibody against total ERK1/2 (clone 127F5, Cell Signaling Technology).
Concurrent to ligand binding and activation, CCR3 undergoes ligand-induced desensitization and internalization (Zimmermann, et al. (1999) J. Biol. Chem. 274:12611-12618). As part of the desensitization process, CCR3 is degraded. This is thought to occur via β-arrestin recruitment to phosphorylated CCR3 and subsequent sequestration of the receptor into endosomal compartments, eventually leading to degradation. β-arrestin signaling is central in this process and is characterized by a late activation of signaling pathways such as MAPK/ERK1/2, in contrast to acute activation by G proteins. […] Therefore, the R3-2-1 peptide is a biased antagonist in that it inhibits the […] of CCL11 ligand-induced β-arrestin signaling, whereas the small molecule inhibitors are unbiased antagonists.

CCR3 [3] = biological target: T1, CCR3; experiment: Chemotaxis assay (Transwell), AML14.3D10-CCR3 cells; assay type: cell-based; set-up: host or cells: AML14.3D10-CCR3 (eosinophilic myelocytic cell line, kept under G418); settings: for tolerance to inhibition of CCL11-induced chemotaxis: 1 μM for 24, 48 or 72 hour, CCL11 12 nM; for inhibition of CCR3-mediated chemotaxis induced by Eotaxin/CCL11, RANTES/CCL5 and MEC/CCL28: AML14.3D10-CCR3 cells, R3-2-1 0.4, 2 or 10 μM
Procedure: AML14.3D10-CCR3 (ATCC, Manassas, Va.; Daugherty, et al. (1996) J. Exp. Med. 183:2349-2354) were maintained in RPMI-1640 supplemented with 10% FBS, 1.5 g/L sodium bicarbonate, 4.5 g/L glucose, 2 mM L-glutamine, 10 mM HEPES, 1 mM sodium pyruvate, 50 μM β-mercaptoethanol, and 2 mg/ml G418 in a humidified incubator with 5% CO2 at 37° C.
Cell migration was determined using a 96-well […]® system (Corning, Tewksbury, Mass.). […] The two chambers were separated by a polycarbonate filter with 5 μm pores. For AML14.3D10-CCR3 cells, 2×10^5 cells/well were resuspended in RPMI-1640+0.1% BSA and allowed to migrate for 4 hours at 37° C. For blood eosinophils, 1×10^5 cells/well were resuspended in X-VIVO 10+0.5% BSA and allowed to migrate for 3 hours at 37° C. Migrated cells were counted using a Beckman QUANTA SC flow cytometer. All experiments were performed in duplicate. Checkerboard analysis was done to distinguish chemotaxis from chemokinesis.
(§1) Primary eosinophils and the stable CCR3+eosinophilic myelocytic cell line, AML14.3D10-CCR3 (Daugherty, et al. (1996) J. Exp. Med. 183:2349-2354) undergo CCR3-mediated chemotaxis induced by multiple chemokines including eotaxin/CCL11, RANTES/CCL5, MCP-4/CCL13, and MEC/CCL28 (Daugherty, et al. (1996) J. Exp. Med. 183:2349-2354; Pan, et al. (2000) J. Immunol. 165:2943-2949).

[4] = test system: eosinophil recruitment into the esophageal epithelium; experiment: Mouse model of EoE, oxazalone-challenged L2-IL5 transgenic mice; assay type: in vivo; settings: i.v., 24 hours after last OXA challenge
Procedure: Skin sensitized L2-IL5 transgenic mice received topical esophageal oxazalone (OXA) challenges by gavage (i.e.) on days 5, 8 and 12 (FIG. 5A). R3-2-1 peptide nanoparticles, control peptide (R3-2-3) or CCR3 inhibitor UCB35625 (UCB) were given immediately before on days 5, 8, 10 and 12 (FIG. 5A). Esophageal eosinophilia was assessed 24 hours after the last OXA challenge and treatment (day 13). […] Error bars represent SEM.
Mice were treated i.v. with R3-2-1 peptide, scrambled R3-2-3 control peptide ([…]-PEG27-NH2; SEQ ID NO:24), or the allosteric non-selective CCR3 inhibitor, UCB35625. Eosinophil recruitment into the esophageal epithelium was assessed 24 hours after the last OXA challenge by counting eosinophils in 9 high power fields (hpf) covering the total esophagus or 3 hpf covering the distal esophagus.

4DE4-CCR3 cells = experiment: Cytotoxicity in 4DE4-CCR3 cells; assay type: cell-based, mouse; settings: concentrations tested in chemotaxis assay
CCR3 [5] = biological target: T1, CCR3; experiment: Chemotaxis assay (Transwell), blood eosinophils; assay type: cell-based; set-up: host or cells: AML14.3D10-CCR3 (eosinophilic myelocytic cell line, kept under G418); settings: scramble peptide control
Text: Blood eosinophils were purified from anti-coagulated blood drawn from mild allergic asthmatic subjects. Peripheral blood was subjected to density gradient centrifugation over FICOLL-PAQUE® Plus (GE Healthcare, Pittsburgh, Pa.) media to obtain a pellet containing erythrocytes and granulocytes. After erythrocyte lysis via hypotonic shock, eosinophils were purified by negative selection using a cocktail of antibody-conjugated magnetic beads against non-eosinophils (Miltenyi Biotec, Auburn, Calif.). The eosinophils were resuspended in X-VIVO 10 without phenol red. The purity and viability of the eosinophils obtained was routinely >97% as assessed by Hema III and trypan blue staining, respectively.
Cell migration was determined using a 96-well TRANSWELL® system (Corning, Tewksbury, Mass.). Briefly, 200 μl chemoattractant or control medium was added to the lower chamber while 100 μl cells were added to the upper chamber. The two chambers were separated by a polycarbonate filter with 5 μm pores. For AML14.3D10-CCR3 cells, 2×10^5 cells/well were resuspended in RPMI-1640+0.1% BSA and allowed to migrate for 4 hours at 37° C. […] Migrated cells were counted using a Beckman QUANTA SC flow cytometer. All experiments were performed in duplicate. Checkerboard analysis was done to distinguish chemotaxis from chemokinesis.
as §1, with “165:2943-2949). […] In addition, R3-2-1 inhibits chemotaxis of both AML14.3D10-CCR3 and blood eosinophils induced by CCL11/Eotaxin-1, CCL24/Eotaxin-2, and CCL26/Eotaxin-3 in a dose-dependent fashion (Table 3).” for “165:2943-2949).”

Compound | CCL11-induced receptor internalization (CCR3 [2]) | acute (2-5 minutes) and late (30 minutes) phase phosphorylation of ERK1/2 (ERK1/2 phosphorylation) | cytotoxicity (4DE4-CCR3 cells) | other results
Ac-KDDDLLSGFYHTGLYSEIFFIILLTI [TM3] | – | – | – | inhibition of eotaxin-induced chemotaxis of 4DE4-CCR3 cells (CCR3 [1]): no significant CCR3 antagonism
CC[N+]1(C/C2=C/CCCCCC2)CCC(NC(=O)C2c3cc(Cl)ccc3Oc3ccc(Cl)cc32)CC1.[I-] (stereo not drawn) [UCB35625, 1,4-trans-1-(1-Cycloocten-1-ylmethyl)-4-[[(2,7-dichloro-9H-xanthen-9-yl)carbonyl]amino]-1-ethylpiperidinium iodide, reference compound] | significantly inhibit chemokine-induced CCR3 internalization | inhibits the late phase to a higher degree than the early phase phosphorylation | – | CCR3 internalization or surface accumulation on prolonged treatment (CCR3 [2]): surface accumulation; tolerance to inhibition of CCL11-induced chemotaxis (CCR3 [3]): slowly lose their ability to antagonize CCL11-induced chemotaxis; inhibition of CCR3-mediated chemotaxis induced by Eotaxin/CCL11, RANTES/CCL5 and MEC/CCL28 (CCR3 [3]): potent inhibitor of chemotaxis induced by multiple CCR3 agonists in vitro; eosinophil recruitment into distal and total esophageal epithelium [4]: had no effect; also recorded: ineffective in reducing eosinophil recruitment
CDDDVMLVTEVIAYSHCCMNPVIYAFV [TM7] | – | – | highly cytotoxic | –
YLFLLVTVFHIWLPHNRGHVWGFDDD-PEG27-NH2 (YLFLLVTVFHIWLPHNRGHVWGFDDD-{PEG27′-NH2}) [Peptide R3-2-3, reference compound] | neither R3-2-1 (1 μM) nor R3-2-3 (1 μM) interfere with CCL11-induced receptor internalization | does not inhibit either acute or late phase phosphorylation | – | CCL11-, CCL24-, or CCL26-induced chemotaxis of blood eosinophils (CCR3 [5]): did not inhibit
Ac-KDDDQFVPPLYSLVFTVGLLGNVVVVMILI [TM1] | – | – | moderately cytotoxic | –
COC(=O)[C@H](Cc1ccc([N+](=O)[O-])cc1)NC(=O)c1cccc2ccccc12 [SB328437, N-(1-Naphthalenylcarbonyl)-4-nitro-L-phenylalanine methyl ester, reference compound] | significantly inhibit chemokine-induced CCR3 internalization | inhibits both acute and late phase phosphorylation | – | CCR3 internalization or surface accumulation on prolonged treatment (CCR3 [2]): surface accumulation; tolerance to inhibition of CCL11-induced chemotaxis (CCR3 [3]): slowly lose their ability to antagonize CCL11-induced chemotaxis; inhibition of CCR3-mediated chemotaxis induced by Eotaxin/CCL11, RANTES/CCL5 and MEC/CCL28 (CCR3 [3]): only inhibits CCL11-induced but not CCL5- or CCL28-induced chemotaxis
Ac-VTFGVITSIVTWGLAVLAALPEFIFDDDK [TM4] | – | – | – | inhibition of eotaxin-induced chemotaxis of 4DE4-CCR3 cells (CCR3 [1]): no significant CCR3 antagonism
LLNLAISDLLFLVTLPFWIHYDDDC [TM2] | – | – | undetectable or low cytotoxicity | –
CDDDTIFCLVLPLLVMAICYTGII [TM5] | – | – | highly cytotoxic | –
LIFVIMAVFFIFWTPYNVAILDDDC [TM6] | – | – | highly cytotoxic | –
